Test results reported in article PMC2263054, “Functional evolution of the vitamin D and pregnane X receptors” (BMC Evolutionary Biology, 2007).

Experiments:
Assay type in all cases: cell-based
Conditions in all cases: screening for activators, at least three concentrations of each drug
Xenopus laevis VDR = target: T1, Xenopus laevis VDR (Xenopus laevis, UniProt O13124); test: luciferase reporter transactivation assay in HepG2-NTCP cells, GAL4/xlVDR LBD chimera with tk-UAS-Luc
T1 sequence (O13124 90-422): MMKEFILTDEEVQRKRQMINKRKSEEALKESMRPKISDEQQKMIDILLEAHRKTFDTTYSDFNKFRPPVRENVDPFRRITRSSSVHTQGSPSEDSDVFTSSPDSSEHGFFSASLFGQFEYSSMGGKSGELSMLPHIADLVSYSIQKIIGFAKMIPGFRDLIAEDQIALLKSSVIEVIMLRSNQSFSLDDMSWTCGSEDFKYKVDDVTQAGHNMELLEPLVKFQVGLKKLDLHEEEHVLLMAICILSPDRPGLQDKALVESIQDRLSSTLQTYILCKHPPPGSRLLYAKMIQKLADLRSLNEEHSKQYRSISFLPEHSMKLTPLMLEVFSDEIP

Sea lamprey VDR = target: T2, Sea lamprey VDR (Petromyzon marinus, UniProt Q7ZZY9)
T2 sequence (Q7ZZY9 92-406): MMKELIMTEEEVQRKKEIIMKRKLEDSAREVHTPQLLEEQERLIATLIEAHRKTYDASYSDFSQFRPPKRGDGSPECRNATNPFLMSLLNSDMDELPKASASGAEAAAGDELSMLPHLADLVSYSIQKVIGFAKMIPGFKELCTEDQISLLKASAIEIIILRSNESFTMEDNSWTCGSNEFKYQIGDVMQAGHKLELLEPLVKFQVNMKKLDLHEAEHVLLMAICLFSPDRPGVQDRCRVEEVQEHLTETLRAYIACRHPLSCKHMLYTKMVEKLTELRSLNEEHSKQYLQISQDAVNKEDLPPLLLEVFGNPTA

Zebrafish VDR = target: T3, Zebrafish VDR (Danio rerio, UniProt Q9PTN2); test: luciferase reporter transactivation assay in HepG2-NTCP cells, GAL4/zfVDR LBD chimera with tk-UAS-Luc
T3 sequence (Q9PTN2 121-453): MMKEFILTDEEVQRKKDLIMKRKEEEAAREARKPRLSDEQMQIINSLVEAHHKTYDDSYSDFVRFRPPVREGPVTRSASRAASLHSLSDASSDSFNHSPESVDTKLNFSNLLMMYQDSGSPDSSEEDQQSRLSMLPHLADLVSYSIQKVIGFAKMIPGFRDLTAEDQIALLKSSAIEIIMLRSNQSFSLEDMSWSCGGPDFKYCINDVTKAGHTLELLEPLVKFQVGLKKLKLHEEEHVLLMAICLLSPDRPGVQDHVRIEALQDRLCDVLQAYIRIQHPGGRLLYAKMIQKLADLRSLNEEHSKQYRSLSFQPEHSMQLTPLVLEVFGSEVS

C[C@H](CC(=O)O)[C@H]1CC[C@H]2[C@@H]3CC[C@@H]4C[C@H](O)CC[C@]4(C)[C@H]3C[C@H](O)[C@]12C [23-Nordeoxycholic acid]
No effect: Effect on Xenopus laevis VDR (Xenopus laevis VDR) | Effect on sea lamprey VDR (Sea lamprey VDR) | Effect on zebrafish VDR (Zebrafish VDR)

C[C@H](CC[C@@H]1OC1(C)C)[C@H]1CC[C@H]2[C@@H]3CC=C4C[C@@H](O)CC[C@]4(C)[C@H]3CC[C@]12C [24(S)-,25-Epoxycholesterol]
No effect: Effect on Xenopus laevis VDR (Xenopus laevis VDR) | Effect on sea lamprey VDR (Sea lamprey VDR) | Effect on zebrafish VDR (Zebrafish VDR)

CC(C)[C@@H](O)CC[C@@H](C)[C@H]1CC[C@H]2[C@@H]3CC=C4C[C@@H](O)CC[C@]4(C)[C@H]3CC[C@]12C [24(S)-Hydroxycholesterol]
No effect: Effect on Xenopus laevis VDR (Xenopus laevis VDR) | Effect on sea lamprey VDR (Sea lamprey VDR) | Effect on zebrafish VDR (Zebrafish VDR)

CC(=O)N[C@@H](CSC/C=C(\C)CC/C=C(\C)CCC=C(C)C)C(=O)O [Acetyl-farnesyl-cysteine]
No effect: Effect on Xenopus laevis VDR (Xenopus laevis VDR) | Effect on sea lamprey VDR (Sea lamprey VDR) | Effect on zebrafish VDR (Zebrafish VDR)

CC(=O)N[C@@H](CSC/C=C(\C)CCC=C(C)C)C(=O)O [Acetyl-geranyl-cysteine]
No effect: Effect on Xenopus laevis VDR (Xenopus laevis VDR) | Effect on sea lamprey VDR (Sea lamprey VDR) | Effect on zebrafish VDR (Zebrafish VDR)

CC(=O)N[C@@H](CSC/C=C(\C)CC/C=C(\C)CC/C=C(\C)CCC=C(C)C)C(=O)O [Acetyl-geranylgeranyl-cysteine]
No effect: Effect on Xenopus laevis VDR (Xenopus laevis VDR) | Effect on sea lamprey VDR (Sea lamprey VDR) | Effect on zebrafish VDR (Zebrafish VDR)

COc1cc(C)c(/C=C/C(C)=C/C=C/C(C)=C/C(=O)O)c(C)c1C [Aciretin]
No effect: Effect on Xenopus laevis VDR (Xenopus laevis VDR) | Effect on sea lamprey VDR (Sea lamprey VDR) | Effect on zebrafish VDR (Zebrafish VDR)

C[C@]12CCC(=O)C=C1CC[C@@H]1[C@@H]2[C@@H](O)C[C@]2(C=O)[C@@H](C(=O)CO)CC[C@@H]12 [Aldosterone]
No effect: Effect on Xenopus laevis VDR (Xenopus laevis VDR) | Effect on sea lamprey VDR (Sea lamprey VDR) | Effect on zebrafish VDR (Zebrafish VDR)

CC1=C(/C=C/C(C)=C/C=C/C(C)=C/C(=O)O)C(C)(C)CCC1 [All trans retinoic acid]
No effect: Effect on Xenopus laevis VDR (Xenopus laevis VDR) | Effect on sea lamprey VDR (Sea lamprey VDR) | Effect on zebrafish VDR (Zebrafish VDR)

C[C@H](CCC(=O)O)[C@H]1CC[C@H]2[C@@H]3[C@H](O)C[C@H]4C[C@H](O)CC[C@]4(C)[C@H]3C[C@H](O)[C@]12C [Allocholic acid]
No effect: Effect on Xenopus laevis VDR (Xenopus laevis VDR) | Effect on sea lamprey VDR (Sea lamprey VDR) | Effect on zebrafish VDR (Zebrafish VDR)

Cc1c(C)c2c(c(C)c1O)CC[C@@](C)(CCC[C@H](C)CCC[C@H](C)CCCC(C)C)O2 [Alpha-tocopherol]
No effect: Effect on Xenopus laevis VDR (Xenopus laevis VDR) | Effect on sea lamprey VDR (Sea lamprey VDR) | Effect on zebrafish VDR (Zebrafish VDR)

C[C@]12CC[C@@H](O)C[C@@H]1CC[C@@H]1[C@@H]2CC[C@]2(C)C(=O)CC[C@@H]12 [Androsterone]
No effect: Effect on Xenopus laevis VDR (Xenopus laevis VDR) | Effect on sea lamprey VDR (Sea lamprey VDR) | Effect on zebrafish VDR (Zebrafish VDR)

CC(C)(c1ccc(OCC2CO2)cc1)c1ccc(OCC2CO2)cc1 (stereo not drawn) [BADGE]
No effect: Effect on Xenopus laevis VDR (Xenopus laevis VDR) | Effect on sea lamprey VDR (Sea lamprey VDR) | Effect on zebrafish VDR (Zebrafish VDR)

CC1=C(/C=C/C(C)=C/C=C/C(C)=C/C=C/C=C(C)/C=C/C=C(C)/C=C/C2=C(C)CCCC2(C)C)C(C)(C)CCC1 [Beta-carotene]
No effect: Effect on Xenopus laevis VDR (Xenopus laevis VDR) | Effect on sea lamprey VDR (Sea lamprey VDR) | Effect on zebrafish VDR (Zebrafish VDR)
